PubChem BioAssay (NCI)
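In this assay, cells in 96-well plates receive the compound at five concentrations for 48 hours. Endpoints are linearly interpolated between the surrounding concentrations. TGI: concentration producing complete growth inhibition.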

Tests used:
Experiment in all cases: DTP human tumour cell line panel, 48 h
786-0 renal = test system: 786-0 renal
A498 renal = test system: A498 renal
A549 NSCLC = test system: A549 NSCLC
ACHN renal = test system: ACHN renal
BT-549 breast = test system: BT-549 breast
CAKI-1 renal = test system: CAKI-1 renal
CCRF-CEM leukemia = test system: CCRF-CEM leukemia
DU-145 prostate = test system: DU-145 prostate
HCT-116 colon = test system: HCT-116 colon
HCT-15 colon = test system: HCT-15 colon
HL-60(TB) leukemia = test system: HL-60(TB) leukemia
HOP-62 NSCLC = test system: HOP-62 NSCLC
HOP-92 NSCLC = test system: HOP-92 NSCLC
HT29 colon = test system: HT29 colon
IGROV1 ovarian = test system: IGROV1 ovarian
K-562 leukemia = test system: K-562 leukemia
KM12 colon = test system: KM12 colon
LOX IMVI melanoma = test system: LOX IMVI melanoma
M14 melanoma = test system: M14 melanoma
MCF7 breast = test system: MCF7 breast
MDA-MB-231 breast = test system: MDA-MB-231 breast
MDA-MB-435 = test system: MDA-MB-435
MDA-N = test system: MDA-N
MOLT-4 leukemia = test system: MOLT-4 leukemia
NCI-H226 lung = test system: NCI-H226 lung
NCI-H23 lung = test system: NCI-H23 lung
NCI-H460 lung = test system: NCI-H460 lung
NCI-H522 lung = test system: NCI-H522 lung
NCI/ADR-RES ovarian = test system: NCI/ADR-RES ovarian
OVCAR-4 ovarian = test system: OVCAR-4 ovarian
OVCAR-5 ovarian = test system: OVCAR-5 ovarian
OVCAR-8 ovarian = test system: OVCAR-8 ovarian
RPMI-8226 leukemia = test system: RPMI-8226 leukemia
RXF 393 renal = test system: RXF 393 renal
SF-268 CNS = test system: SF-268 CNS
SF-295 CNS = test system: SF-295 CNS
SF-539 CNS = test system: SF-539 CNS
SK-MEL-2 melanoma = test system: SK-MEL-2 melanoma
SK-MEL-5 melanoma = test system: SK-MEL-5 melanoma
SK-OV-3 ovarian = test system: SK-OV-3 ovarian
SN12C renal = test system: SN12C renal
SNB-19 CNS = test system: SNB-19 CNS
SR leukemia = test system: SR leukemia
SW-620 colon = test system: SW-620 colon
T-47D breast = test system: T-47D breast
TK-10 renal = test system: TK-10 renal
U251 CNS = test system: U251 CNS
UACC-257 melanoma = test system: UACC-257 melanoma
UO-31 renal = test system: UO-31 renal
COLO 205 colon = test system: COLO 205 colon
EKVX NSCLC = test system: EKVX NSCLC
HCC-2998 colon = test system: HCC-2998 colon
MALME-3M melanoma = test system: MALME-3M melanoma
OVCAR-3 ovarian = test system: OVCAR-3 ovarian
PC-3 prostate = test system: PC-3 prostate
SK-MEL-28 melanoma = test system: SK-MEL-28 melanoma
SNB-75 CNS = test system: SNB-75 CNS
UACC-62 melanoma = test system: UACC-62 melanoma

CCN(CC)c1ccc2cc(-c3nc4ccccc4n3C)c(=O)oc2c1
TGI (786-0 renal): > 48.7 µM | TGI (A498 renal): 0.187 µM | TGI (A549 NSCLC): > 100 µM | TGI (ACHN renal): > 100 µM | TGI (BT-549 breast): 0.861 µM | TGI (CAKI-1 renal): > 100 µM | TGI (CCRF-CEM leukemia): > 100 µM | TGI (DU-145 prostate): > 24.2 µM | TGI (HCT-116 colon): > 100 µM | TGI (HCT-15 colon): > 100 µM | TGI (HL-60(TB) leukemia): > 100 µM | TGI (HOP-62 NSCLC): 29.8 µM | TGI (HOP-92 NSCLC): > 100 µM | TGI (HT29 colon): 11 µM | TGI (IGROV1 ovarian): 4.79 µM | TGI (K-562 leukemia): > 100 µM | TGI (KM12 colon): > 100 µM | TGI (LOX IMVI melanoma): > 100 µM | TGI (M14 melanoma): > 100 µM | TGI (MCF7 breast): > 100 µM | TGI (MDA-MB-231 breast): > 54.3 µM | TGI (MDA-MB-435): 0.334 µM | TGI (MDA-N): 0.135 µM | TGI (MOLT-4 leukemia): > 100 µM | TGI (NCI-H226 lung): 1.46 µM | TGI (NCI-H23 lung): 29.3 µM | TGI (NCI-H460 lung): 4.36 µM | TGI (NCI-H522 lung): 0.661 µM | TGI (NCI/ADR-RES ovarian): 0.727 µM | TGI (OVCAR-4 ovarian): > 100 µM | TGI (OVCAR-5 ovarian): > 100 µM | TGI (OVCAR-8 ovarian): > 100 µM | TGI (RPMI-8226 leukemia): > 31.6 µM | TGI (RXF 393 renal): 63.1 µM | TGI (SF-268 CNS): > 100 µM | TGI (SF-295 CNS): > 100 µM | TGI (SF-539 CNS): 0.545 µM | TGI (SK-MEL-2 melanoma): 0.68 µM | TGI (SK-MEL-5 melanoma): 3.42 µM | TGI (SK-OV-3 ovarian): 43.6 µM | TGI (SN12C renal): > 100 µM | TGI (SNB-19 CNS): > 100 µM | TGI (SR leukemia): > 100 µM | TGI (SW-620 colon): > 100 µM | TGI (T-47D breast): > 100 µM | TGI (TK-10 renal): > 100 µM | TGI (U251 CNS): > 41.9 µM | TGI (UACC-257 melanoma): > 100 µM | TGI (UO-31 renal): > 100 µM

CC(=O)OC1COC(n2nc(N)nc2C)C(OC(C)=O)C1OC(C)=O (stereo not given)
TGI (786-0 renal): > 100 µM | TGI (A498 renal): > 100 µM | TGI (A549 NSCLC): > 100 µM | TGI (ACHN renal): > 100 µM | TGI (BT-549 breast): > 100 µM | TGI (CAKI-1 renal): > 100 µM | TGI (CCRF-CEM leukemia): > 100 µM | TGI (COLO 205 colon): > 100 µM | TGI (DU-145 prostate): > 100 µM | TGI (EKVX NSCLC): > 100 µM | TGI (HCC-2998 colon): > 100 µM | TGI (HCT-116 colon): > 100 µM | TGI (HCT-15 colon): > 100 µM | TGI (HL-60(TB) leukemia): > 100 µM | TGI (HOP-62 NSCLC): > 100 µM | TGI (HOP-92 NSCLC): > 100 µM | TGI (HT29 colon): > 100 µM | TGI (IGROV1 ovarian): > 100 µM | TGI (K-562 leukemia): > 100 µM | TGI (KM12 colon): > 100 µM | TGI (LOX IMVI melanoma): > 100 µM | TGI (M14 melanoma): > 100 µM | TGI (MALME-3M melanoma): > 100 µM | TGI (MCF7 breast): > 100 µM | TGI (MDA-MB-231 breast): > 100 µM | TGI (MDA-MB-435): > 100 µM | TGI (MDA-N): > 100 µM | TGI (MOLT-4 leukemia): > 100 µM | TGI (NCI-H226 lung): > 100 µM | TGI (NCI-H23 lung): > 100 µM | TGI (NCI-H460 lung): > 100 µM | TGI (NCI-H522 lung): > 100 µM | TGI (NCI/ADR-RES ovarian): > 100 µM | TGI (OVCAR-3 ovarian): > 100 µM | TGI (OVCAR-4 ovarian): > 100 µM | TGI (OVCAR-5 ovarian): > 100 µM | TGI (OVCAR-8 ovarian): > 100 µM | TGI (PC-3 prostate): > 100 µM | TGI (RPMI-8226 leukemia): > 100 µM | TGI (RXF 393 renal): > 100 µM | TGI (SF-268 CNS): > 100 µM | TGI (SF-295 CNS): > 100 µM | TGI (SK-MEL-2 melanoma): > 100 µM | TGI (SK-MEL-28 melanoma): > 100 µM | TGI (SK-MEL-5 melanoma): > 100 µM | TGI (SK-OV-3 ovarian): > 100 µM | TGI (SN12C renal): > 100 µM | TGI (SNB-19 CNS): > 100 µM | TGI (SNB-75 CNS): > 100 µM | TGI (SW-620 colon): > 100 µM | TGI (T-47D breast): > 100 µM | TGI (TK-10 renal): > 100 µM | TGI (U251 CNS): > 100 µM | TGI (UACC-257 melanoma): > 100 µM | TGI (UACC-62 melanoma): > 100 µM | TGI (UO-31 renal): > 100 µM
